What all share (test): E. coli hemG growth inhibition by herbicide, AtPPO1 variant
Format in all cases: cell-based
Holding throughout (conditions): read-out: percentage growth inhibition

For one assay, the target named is T1, AtPPO1 V127I (Arabidopsis thaliana, UniProt P55826, V127I).
T1 construct: expressed in transfected cells; host or cells: E. coli BL21(DE3) hemG (hemG replaced by CmR), pET24a plasmid
T1 sequence (P55826 35-537 V127I): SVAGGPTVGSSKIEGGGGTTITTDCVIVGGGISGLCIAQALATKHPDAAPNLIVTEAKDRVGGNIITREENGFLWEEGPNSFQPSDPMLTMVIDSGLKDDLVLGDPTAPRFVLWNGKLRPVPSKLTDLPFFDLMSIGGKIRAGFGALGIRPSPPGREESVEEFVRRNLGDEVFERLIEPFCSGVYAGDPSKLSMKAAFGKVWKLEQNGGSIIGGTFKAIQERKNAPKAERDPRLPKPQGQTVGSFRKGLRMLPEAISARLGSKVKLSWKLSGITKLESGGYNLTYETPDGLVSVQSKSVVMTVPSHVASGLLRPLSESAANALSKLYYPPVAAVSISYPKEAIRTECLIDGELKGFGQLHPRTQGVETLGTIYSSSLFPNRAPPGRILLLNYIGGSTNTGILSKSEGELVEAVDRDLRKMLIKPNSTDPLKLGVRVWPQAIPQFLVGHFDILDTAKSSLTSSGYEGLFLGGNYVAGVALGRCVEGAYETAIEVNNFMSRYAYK
An outline of the steps: (§1)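 Variant plasmids were transformed into hemG-null BL21(DE3) and precultured 24 h with hematin. Washed cells were diluted 1:100 into Terrific broth containing 0.1 mM IPTG and herbicide (6.25 ppm 0 or E; 0.78 ppm B) or DMSO. After 24 h at 37° C, OD600 gave percent inhibition.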

The next assay has as its target T2, AtPPO1 G64A (Arabidopsis thaliana, UniProt P55826, G64A).
T2 construct: expressed in transfected cells; host or cells: E. coli BL21(DE3) hemG (hemG replaced by CmR), pET24a plasmid
T2 sequence (P55826 35-537 G64A): T1 sequence (P55826 35-537 V127I) with G30A, I93V
An outline of the steps:
as §1

A further assay addresses T3, AtPPO1 Y426T (Arabidopsis thaliana, UniProt P55826, Y426T).
T3 construct: expressed in transfected cells; host or cells: E. coli BL21(DE3) hemG (pET24a, T7 promoter)
T3 sequence (P55826 35-537 Y426T): T1 sequence (P55826 35-537 V127I) with I93V, Y392T
An outline of the steps:
as §1

For a further assay, the target named is T4, AtPPO1 K281E (Arabidopsis thaliana, UniProt P55826, K281E).
T4 construct: expressed in transfected cells; host or cells: E. coli BL21(DE3) hemG (hemG replaced by CmR), pET24a plasmid
T4 sequence (P55826 35-537 K281E): T1 sequence (P55826 35-537 V127I) with I93V, K247E
An outline of the steps: as §1

Residue numbers refer to the chain shown, from its start.

This passage reports inhibition results from US20260297542A1, “HERBICIDE RESISTANT PLANTS” (SYNGENTA CROP PROTECTION AG, priority 2023, published 2026).

For `C#CCN1C(=O)C(F)(F)Oc2cc(F)c(-n3c(=O)n(C)c(=S)n(C)c3=O)cc21` [Herbicide B, trifludimoxazin], the inhibition at 0.78 ppm at AtPPO1 V127I was found to be 28%; at AtPPO1 G64A it was 36%; on AtPPO1 Y426T, 8%; on AtPPO1 K281E it was 37%.

Consider `CCOC(=O)[C@]1(C)CC(c2cc(-n3c(=O)n(C)c(=S)n(C)c3=O)c(F)cc2Cl)=NO1` [Herbicide D, ethyl (5S)-3-[2-chloro-5-(3,5-dimethyl-2,6-dioxo-4-thioxo-1,3,5-triazinan-1-yl)-4-fluoro-phenyl]-5-methyl-4H-isoxazole-5-carboxylate], for which the inhibition at 6.25 ppm at AtPPO1 V127I is 23%; at AtPPO1 G64A, 38%; on AtPPO1 Y426T it was 12%; at AtPPO1 K281E, 33%.

`CC(C)N(C)S(=O)(=O)NC(=O)c1cc(-n2c(=O)cc(C(F)(F)F)n(C)c2=O)c(F)cc1Cl` [Herbicide E, saflufenacil]: the inhibition at 6.25 ppm on AtPPO1 V127I is 69%; at AtPPO1 G64A it was 34%; at AtPPO1 Y426T, 11%; on AtPPO1 K281E, 61%.

The inhibition is how much of the control response was suppressed.
